Reference: article PMC10220285, “Development of an assay pipeline for the discovery of novel small molecule inhibitors of human glutathione peroxidases GPX1 and GPX4” (Redox Biology, 2023)
Read-outs that look alike come from different tables or passages of the source.

Tests used:
Assay type in all cases: biochemical
human TXNRD1 = target: T1, human TXNRD1 (Homo sapiens, UniProt Q16881); test: Thioredoxin reductase 1 (TXNRD1) inhibition assay (selenite reduction); settings: for inhibition of TXNRD1: Fig. 9 pan-selenoprotein inhibitors
T1 construct: made in house
T1 sequence (Q16881 1-499 isoform Q16881-5): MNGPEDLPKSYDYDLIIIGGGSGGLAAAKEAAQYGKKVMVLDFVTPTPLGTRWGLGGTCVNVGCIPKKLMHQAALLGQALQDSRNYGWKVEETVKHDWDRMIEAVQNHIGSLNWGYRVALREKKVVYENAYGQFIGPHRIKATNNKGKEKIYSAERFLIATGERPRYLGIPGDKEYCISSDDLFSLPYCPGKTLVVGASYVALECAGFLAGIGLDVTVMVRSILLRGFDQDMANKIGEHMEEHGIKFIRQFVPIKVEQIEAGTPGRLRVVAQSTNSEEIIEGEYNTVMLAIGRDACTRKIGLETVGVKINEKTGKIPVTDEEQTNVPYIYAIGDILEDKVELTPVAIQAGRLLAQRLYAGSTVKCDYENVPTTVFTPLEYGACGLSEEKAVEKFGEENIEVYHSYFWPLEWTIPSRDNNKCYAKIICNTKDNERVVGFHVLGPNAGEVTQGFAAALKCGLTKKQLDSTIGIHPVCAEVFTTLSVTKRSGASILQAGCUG
Method: The compound plates were prepared as described previously. Purified recombinant human GPX1, GPX2, GPX4, GR, and TXNRD1 were produced and purified as previously reported [[48], [49], [50]]. As production of GPX2 was not optimized at the onset of screening, only GPX1 and GPX4 underwent library screening, and GPX2 was used as a follow-up.
Follow-up and orthogonal assays were run in quadruplicate unless otherwise stated. Assay schemes are illustrated in Fig. 1.
TXNRD1 activity was assessed using a modified 1536-well TXNRD1 inhibition assay, based upon TXNRD1-catalyzed selenite reduction as previously described (Fig. 1D). […] TE buffer was dispensed into column 1 and 2 as a no-enzyme control. Finally, 1 μL of sodium selenite in TE buffer was dispensed into each well for final concentrations of 90 nM hTXNRD1, 0.4 mM NADPH, and 0.4 mM sodium selenite. The plate was read in a Viewlux multimodal detector in kinetic mode and fluorescence at 340 nm/450 nm was measured every minute for 8 min.
Percent activity was determined by first calculating delta RFU (decrease in fluorescence between t = 0 and t = 20/30 min in primary GPX, GR counter-screen, and TXNRD1 assays, or increase in fluorescence between t = 0 and t = 20 min in the Monobromobimane GPX endpoint assay), and normalizing enzyme activity using median delta RFU values for DMSO-treated enzyme control, and DMSO-treated no-enzyme controls.
Compound inhibitory activity in the qHTS assays was determined by plotting dose-response data for each sample and fitting with a four-parameter logistic fit to assess IC50 values, efficacy (maximal response), and AUC (area under the curve), as previously described. Hits were classified by the quality of the concentration-response curves (CRC). Curve classes −1.1 and −1.2 being the highest-confidence actives with complete CRCs and classes −2.1 and −2.2 being lower-confidence actives with incomplete CRCs.

GPX1 = target: T2, GPX1 (Homo sapiens, UniProt P07203); test: GR-coupled GPX1 activity assay (NADPH fluorescence, CHP substrate); settings: for inhibition of GPX1: Fig. 9 pan-selenoprotein inhibitors
T2 construct: made in house; host or cells: E. coli
T2 sequence (P07203 1-203): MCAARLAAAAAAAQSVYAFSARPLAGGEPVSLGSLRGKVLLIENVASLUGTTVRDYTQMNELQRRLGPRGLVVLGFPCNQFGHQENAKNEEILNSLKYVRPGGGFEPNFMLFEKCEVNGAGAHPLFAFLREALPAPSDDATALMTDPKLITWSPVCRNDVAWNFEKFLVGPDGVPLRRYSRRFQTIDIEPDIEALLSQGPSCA

human GPX2 = target: T3, human GPX2 (Homo sapiens, UniProt P18283); test: GPX2 activity assay (follow-up isoform specificity); settings: for inhibition of GPX2: Fig. 9 pan-selenoprotein inhibitors
T3 construct: made in house
T3 sequence (P18283 1-190): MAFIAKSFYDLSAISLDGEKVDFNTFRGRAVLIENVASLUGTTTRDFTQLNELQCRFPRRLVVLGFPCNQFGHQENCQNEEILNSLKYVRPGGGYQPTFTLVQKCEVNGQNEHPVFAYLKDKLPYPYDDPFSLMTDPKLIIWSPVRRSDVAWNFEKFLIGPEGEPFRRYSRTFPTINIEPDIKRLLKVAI

[1] = listed as 2,3-dimercaptopropanesulfonic acid

inhibition of TXNRD1 (human TXNRD1) | inhibition of TXNRD1 (human TXNRD1; [1]) | inhibition of GPX1 (GPX1) | inhibition of GPX1 (GPX1; [1]) | inhibition of GPX2 (human GPX2) | inhibition of GPX2 (human GPX2; [1]) | Compound | IC50 (human TXNRD1; IC50 of resulting CRC, Table 2, read-out: IC50 TrxR1) [µM] | IC50 (GPX1; IC50 of resulting CRC, Table 2, read-out: IC50 GPx1) [µM] | IC50 (GPX1; assay validation, Fig. 2E, read-out: IC50, prior art GPX1 inhibitor activities in optimized assay) [µM] | IC50 (GPX1; compound present in the screening libraries (qHTS), read-out: IC50 GPX1, primary library screen) [µM] | IC50 (GPX1; initial tests comparing GR-coupled and mBBr assay formats, read-out: IC50 in the GR-coupled assay) [µM] | hit status in GPX1 qHTS (GPX1; primary library screen) | IC50 (human GPX2; IC50 of resulting CRC, Table 2) [nM]
 |  |  |  |  |  | CC(=O)OC[C@H]1O[C@@H]([S-])[C@H](OC(C)=O)[C@@H](OC(C)=O)[C@@H]1OC(C)=O.CCP(CC)CC.[Au+] [Auranofin] | 19 | 4.6 | 4.84 | 2.26 | 1.94 | high-quality active hit for GPX1 in all three | 2100
inhibited all tested selenoproteins | inhibited all selenoproteins | inhibited all tested selenoproteins | inhibited all selenoproteins | inhibited all tested selenoproteins | inhibited all selenoproteins | O=S(=O)(O)CC(S)CS (stereo not shown) [2,3-dimercaptopropanesulfonate] |  |  |  |  |  |  | 
